Measurements as given in patent publication US20080242661A1, “Novel compounds useful for the treatment of degenerative & inflammatory diseases” (priority 2006, published 2008).

biological target: purified PDE1A enzyme (Homo sapiens, UniProt P54750); experiment: In vitro PDE1A assay, dose response (Biomol Cyclic Nucleotide Phosphodiesterase Assay Kit, colorimetric); assay type: biochemical; settings: 100 μM cAMP, 45 min at 37° C., 8 points from 20 μM, duplicate
Excerpt: For the dose response and further screening, we used the Cyclic Nucleotide Phosphodiesterase Assay Kit from Biomol, a colorimetric, non-radioactive assay. The basis for the assay is the cleavage of cAMP by PDE1A. The 5′AMP is further cleaved into the nucleoside and phosphate by the enzyme 5′-nucleotidase (catnr KI-307). The phosphate released due to enzymatic cleavage is quantified using BIOMOL GREEN™ reagent (catnr AK-111) in a modified Malachite Green assay 1,2. A PDE1A inhibitor will result in a decrease of the signal.
For the enzymatic reaction a mix of 25 μL with purified PDE1A enzyme, 100 μM cAMP, 5′Nucleotidase and the compound is made in a clear 384-plate. The reaction buffer is Tris 20 mM pH 7.4, 4 μg/ml calmodulin, 3 mM MgCl2, 1.5 mM CaCl2, 0.2 mg/mL BSA and 0.001% Brij-35. After an incubation of 45 minutes at 37° C., the reaction is stopped by the addition of 50 μL BIOMOL GREEN™ reagent. After 30 minutes incubation at room temperature, the readout is performed on the Envision (absorption at 615 nm).
All compounds are tested in duplicate starting from 20 μM followed by a ⅓ serial dilution, 8 points (20 μM-6.67 μM-2.22 μM-740 nM-247 nM-82 nM-27 nM-9 nM) in a final concentration of 1% DMSO. As the positive dose response control compound Vardenafil is used. For the calculation of z′ and PIN values 10 μM Vardenafil is used as positive control (100% inhibition) and 1% DMSO as negative control (0% inhibition).
The following compounds have been or can be prepared according to the synthetic methods described above. For the purpose of Table 2 below, activity of each compound, which can be determined using the PDE1A assay method described in above, is expressed as follows: […]

IC50	Structure (SMILES)
> 0.5 µM	CCCc1nn(C)c2c(=O)[nH]c(NCCc3cnn(-c4ccccc4)c3)nc12 [Example 88, 1-methyl-5-(2-(1-phenyl-1H-pyrazol-4-yl)ethylamino)-3-propyl-1H-pyrazolo[4,3-d]pyrimidin-7(6H)-one]
0.101 to 0.5 µM	CCCc1nn(C)c2c(=O)[nH]c(NCc3cccc(OCCN4CCOCC4)c3)nc12 [Example 55, 1-methyl-5-(3-(2-morpholinoethoxy)benzylamino)-3-propyl-1H-pyrazolo[4,3-d]pyrimidin-7(6H)-one]
> 0.5 µM	CCCc1nn(C)c2c(=O)[nH]c(NCc3ccccc3OCCN3CCOCC3)nc12 [Example 50, 1-methyl-5-(2-(2-morpholinoethoxy)benzylamino)-3-propyl-1H-pyrazolo[4,3-d]pyrimidin-7(6H)-one]
0.101 to 0.5 µM	CCCc1nn(C)c2c(=O)[nH]c(N3CCc4ccccc4C3)nc12 [Example 8, 5-(3,4-dihydroisoquinolin-2(1H)-yl)-1-methyl-3-propyl-1H-pyrazolo[4,3-d]pyrimidin-7(6H)-one]
< 0.1 µM	CCCc1nn(C)c2c(=O)[nH]c(NCc3nn(-c4ccccc4)nc3C)nc12 [Example 52, 1-methyl-5-((5-methyl-2-phenyl-2H-1,2,3-triazol-4-yl)methylamino)-3-propyl-1H-pyrazolo[4,3-d]pyrimidin-7(6H)-one]
0.101 to 0.5 µM	CCCc1nn(C)c2c(=O)[nH]c(NCc3ccc4c(ccn4C)c3)nc12 [Example 68, 1-methyl-5-((1-methyl-1H-indol-5-yl)methylamino)-3-propyl-1H-pyrazolo[4,3-d]pyrimidin-7(6H)-one]
> 0.5 µM	CCCc1nn(C)c2c(=O)[nH]c(NCc3cccc(F)c3)nc12 [Example 18, 5-(3-fluorobenzylamino)-1-methyl-3-propyl-1H-pyrazolo[4,3-d]pyrimidin-7(6H)-one]
0.101 to 0.5 µM	CCCc1nn(C)c2c(=O)[nH]c(N(C)Cc3ccc(N4CCOCC4)cc3)nc12 [Example 61, 1-methyl-5-(methyl(4-morpholinobenzyl)amino)-3-propyl-1H-pyrazolo[4,3-d]pyrimidin-7(6H)-one]
> 0.5 µM	CCCc1nn(C)c2c(=O)[nH]c(NCc3ccc(F)cc3)nc12 [Example 23, 5-(4-fluorobenzylamino)-1-methyl-3-propyl-1H-pyrazolo[4,3-d]pyrimidin-7(6H)-one]
> 0.5 µM	CCCc1nn(C)c2c(=O)[nH]c(NCc3ccc(N4CCN(C)CC4)cc3)nc12 [Example 6, 1-methyl-5-(4-(4-methylpiperazin-1-yl)benzylamino)-3-propyl-1H-pyrazolo[4,3-d]pyrimidin-7(6H)-one]
0.101 to 0.5 µM	CCCc1nn(C)c2c(=O)[nH]c(NCc3cccc(-n4cccc4)c3)nc12 [Example 64]
0.101 to 0.5 µM	CCCc1nn(C)c2c(=O)[nH]c(NCc3cccc(N4CCOCC4)c3)nc12 [Example 56, 1-methyl-5-(3-morpholinobenzylamino)-3-propyl-1H-pyrazolo[4,3-d]pyrimidin-7(6H)-one]
< 0.1 µM	CCCc1nn(C)c2c(=O)[nH]c(N(Cc3cccc(N4CCOCC4)c3)CC(C)CC)nc12 (centres unmarked) [Example 114, 1-methyl-5-((2-methylbutyl)(3-morpholinobenzyl)amino)-3-propyl-1H-pyrazolo[4,3-d]pyrimidin-7(6H)-one]
0.101 to 0.5 µM	CCCc1nn(C)c2c(=O)[nH]c(NCc3cccc(-n4cncn4)c3)nc12 [Example 73]
0.101 to 0.5 µM	CCCc1nn(C)c2c(=O)[nH]c(NCc3ccc(CN4CCOCC4)cc3)nc12 [Example 27, 1-methyl-5-(4-(morpholinomethyl)benzylamino)-3-propyl-1H-pyrazolo[4,3-d]pyrimidin-7(6H)-one]
0.101 to 0.5 µM	CCCc1nn(C)c2c(=O)[nH]c(NCc3ccc(Cl)c(Cl)c3)nc12 [Example 32, 5-(3,4-dichlorobenzylamino)-1-methyl-3-propyl-1H-pyrazolo[4,3-d]pyrimidin-7(6H)-one]

The next lines start with the molecule.

Structure (SMILES)	IC50
CCn1nc(C(C)(C)C)c2nc(N(Cc3cccc(N4CCOCC4)c3)CC(C)C)[nH]c(=O)c21 [Example 124, 3-tert-butyl-1-ethyl-5-(isobutyl(3-morpholinobenzyl)amino)-1H-pyrazolo[4,3-d]pyrimidin-7(6H)-one]	> 0.5 µM
CCCc1nn(C)c2c(=O)[nH]c(N(C)Cc3ccnc(N4CCCC4)c3)nc12 [Example 41, 1-methyl-5-(methyl((2-(pyrrolidin-1-yl)pyridin-4-yl)methyl)amino)-3-propyl-1H-pyrazolo[4,3-d]pyrimidin-7(6H)-one]	> 0.5 µM
CCCc1nn(C)c2c(=O)[nH]c(N(Cc3ccccc3)C(C)C)nc12 [Example 28, 5-(benzyl(isopropyl)amino)-1-methyl-3-propyl-1H-pyrazolo[4,3-d]pyrimidin-7(6H)-one]	0.101 to 0.5 µM
CC(C)CN(Cc1cccc(-n2cccc2)c1)c1nc2c(C(C)(C)C)nn(C)c2c(=O)[nH]1 [Example 100]	< 0.1 µM
CCCc1nn(C)c2c(=O)[nH]c(NCCC(C)C)nc12 [Example 19, 5-(isopentylamino)-1-methyl-3-propyl-1H-pyrazolo[4,3-d]pyrimidin-7(6H)-one]	> 0.5 µM
CN1CCN(c2cccc(CNc3nc4c(C(C)(C)C)nn(C)c4c(=O)[nH]3)c2)CC1 [Example 92, 3-tert-butyl-1-methyl-5-(3-(4-methylpiperazin-1-yl)benzylamino)-1H-pyrazolo[4,3-d]pyrimidin-7(6H)-one]	< 0.1 µM
CCCc1nn(C)c2c(=O)[nH]c(N(C)Cc3nn(C)c4ccccc34)nc12 [Example 35, 1-methyl-5-(methyl((1-methyl-1H-indazol-3-yl)methyl)amino)-3-propyl-1H-pyrazolo[4,3-d]pyrimidin-7(6H)-one]	> 0.5 µM
CCCc1nn(C)c2c(=O)[nH]c(N(C)Cc3ccc(Cl)c(Cl)c3)nc12 [Example 2, 5-((3,4-dichlorobenzyl)(methyl)amino)-1-methyl-3-propyl-1H-pyrazolo[4,3-d]pyrimidin-7(6H)-one]	< 0.1 µM
CCCc1nn(C)c2c(=O)[nH]c(N(C)Cc3ccccc3)nc12 [Example 33, 5-(benzyl(methyl)amino)-1-methyl-3-propyl-1H-pyrazolo[4,3-d]pyrimidin-7(6H)-one]	0.101 to 0.5 µM
CCCc1nn(C)c2c(=O)[nH]c(NCc3ccc(S(N)(=O)=O)cc3)nc12 [Example 120, 4-((1-methyl-7-oxo-3-propyl-6,7-dihydro-1H-pyrazolo[4,3-d]pyrimidin-5-ylamino)methyl)benzenesulfonamide]	> 0.5 µM
CCCc1nn(C)c2c(=O)[nH]c(N(CCC(C)C)Cc3cccc(-n4cccn4)c3)nc12 [Example 106]	< 0.1 µM
CCCC(C)CN(Cc1cccc(N2CCOCC2)c1)c1nc2c(C(C)(C)C)nn(C)c2c(=O)[nH]1 (centres unmarked) [Example 104, 3-tert-butyl-1-methyl-5-((2-methylpentyl)(3-morpholinobenzyl)amino)-1H-pyrazolo[4,3-d]pyrimidin-7(6H)-one]	< 0.1 µM
CCCc1nn(C)c2c(=O)[nH]c(N(CC(C)C)CC(C)C)nc12 [Example 29, 5-(diisobutylamino)-1-methyl-3-propyl-1H-pyrazolo[4,3-d]pyrimidin-7(6H)-one]	0.101 to 0.5 µM
CCCc1nn(C)c2c(=O)[nH]c(N3CCCN(Cc4c(F)cccc4Cl)CC3)nc12 [Example 1, 5-(4-(2-chloro-6-fluorobenzyl)-1,4-diazepan-1-yl)-1-methyl-3-propyl-1H-pyrazolo[4,3-d]pyrimidin-7(6H)-one]	> 0.5 µM
CC(C)CN(Cc1cccc(-n2cncn2)c1)c1nc2c(C(C)(C)C)nn(C)c2c(=O)[nH]1 [Example 95]	< 0.1 µM
CCC(CC)CN(C)c1nc2c(C(C)(C)C)nn(C)c2c(=O)[nH]1 [Example 105, 3-tert-butyl-5-((2-ethylbutyl)(methyl)amino)-1-methyl-1H-pyrazolo[4,3-d]pyrimidin-7(6H)-one]	< 0.1 µM
Cn1nc(C2CCCC2)c2nc(N3CCCC3c3ccccc3)[nH]c(=O)c21 (centres unmarked) [Example 86, 3-cyclopentyl-1-methyl-5-(2-phenylpyrrolidin-1-yl)-1H-pyrazolo[4,3-d]pyrimidin-7(6H)-one]	< 0.1 µM
CCCc1nn(C)c2c(=O)[nH]c(NCCc3ccc(OCC)c(OCC)c3)nc12 [Example 82, 5-(3,4-diethoxyphenethylamino)-1-methyl-3-propyl-1H-pyrazolo[4,3-d]pyrimidin-7(6H)-one]	> 0.5 µM
CCCc1nn(C)c2c(=O)[nH]c(N(C)CC(C)CC)nc12 (centres unmarked) [Example 112, 1-methyl-5-(methyl(2-methylbutyl)amino)-3-propyl-1H-pyrazolo[4,3-d]pyrimidin-7(6H)-one]	0.101 to 0.5 µM
CC(C)CN(Cc1cccc(-n2cccn2)c1)c1nc2c(C(C)(C)C)nn(C)c2c(=O)[nH]1 [Example 93]	< 0.1 µM
CCCc1nn(C)c2c(=O)[nH]c(N(C)Cc3cc(-c4ccccc4)nn3C)nc12 [Example 38, 1-methyl-5-(methyl((1-methyl-3-phenyl-1H-pyrazol-5-yl)methyl)amino)-3-propyl-1H-pyrazolo[4,3-d]pyrimidin-7(6H)-one]	< 0.1 µM
CCC(CC)CN(Cc1cccc(-n2cccn2)c1)c1nc2c(C(C)(C)C)nn(C)c2c(=O)[nH]1 [Example 121]	< 0.1 µM
